Source: ChEMBL document CHEMBL1157599, “Synthesis, in vitro and in vivo biological evaluation, docking studies, and structure--activity relationship (SAR) discussion of dipeptidyl boronic acid proteasome inhibitors composed of beta-amino acids” (J Med Chem, 2010)

Key:
[1] = Inhibition of chymotrypsin-like activity of human 20S proteosome assessed as hydrolysis of fluorogenic Suc-Leu-Leu-Val-Tyr-AMC substrate
[2] = Cytotoxicity against human BCG823 cells after 72 hrs by MTT assay; type: functional, cell-based; details: BCG823, 72 h
HL-60 = test: Cytotoxicity against human HL60 cells after 72 hrs by MTT assay; type: functional, cell-based; details: HL-60, 72 h
[3] = Toxicity against zebrafish embryo assessed as morphological changes at 10 umol after 24 hrs; parameters: species or system Danio rerio; details: in vivo
PC-3 = test: Cytotoxicity against human PC3 cells after 72 hrs by MTT assay; type: functional, cell-based; details: PC-3, 72 h
BXPC-3 = test: Cytotoxicity against human BxPC3 cells after 72 hrs by MTT assay; type: functional, cell-based; details: BXPC-3, 72 h
A549 = test: Cytotoxicity against human A549 cells after 72 hrs by MTT assay; type: functional, cell-based; details: A549, 72 h
SK-OV-3 = test: Cytotoxicity against human SKOV3 cells after 72 hrs by MTT assay; type: functional, cell-based; details: SK-OV-3, 72 h
U-266 = test: Cytotoxicity against human U266 cells after 72 hrs by MTT assay; type: functional, cell-based; details: U-266, 72 h
[4] = Toxicity against zebrafish embryo assessed as morphological changes at 1 umol after 24 hrs; parameters: species or system Danio rerio; details: in vivo
SW480 = test: Cytotoxicity against human SW480 cells after 72 hrs by MTT assay; type: functional, cell-based; details: SW480, 72 h
NCI-H460 = test: Cytotoxicity against human H460 cells after 72 hrs by MTT assay; type: functional, cell-based; details: NCI-H460, 72 h
HepG2 = test: cells; details: Homo sapiens, HepG2, 72 h
Description: Cytotoxicity against human HepG2 cells after 72 hrs by MTT assay

[5] = Tmax in Sprague-Dawley rat at 1 mg/kg, iv; type: ADME, organism-based; parameters: dose 1 mg/kg, route intravenous; details: in vivo
Rattus norvegicus [6] = test: Toxicity in Sprague-Dawley rat assessed as toxic reactions at 1 mg/kg, iv; type: organism-based; parameters: dose 1 mg/kg, route intravenous; details: in vivo
[7] = Systemic clearance in Sprague-Dawley rat at 1 mg/kg, iv; type: ADME, organism-based; parameters: dose 1 mg/kg, route intravenous; details: in vivo
[8] = Terminal half life in Sprague-Dawley rat at 1 mg/kg, iv; type: ADME, organism-based; parameters: dose 1 mg/kg, route intravenous; details: in vivo, read-out: beta t1/2 (converted)
Rattus norvegicus [9] = test: Toxicity in Sprague-Dawley rat assessed as toxic reactions at 1 mg/kg, ig; type: organism-based; parameters: dose 1 mg/kg, route intragastric; details: in vivo, po
[10] = Volume of distribution in Sprague-Dawley rat at 1 mg/kg, iv; type: ADME, organism-based; parameters: dose 1 mg/kg, route intravenous; details: in vivo, read-out: Vz
[11] = Mean residence time in Sprague-Dawley rat at 1 mg/kg, iv; type: ADME, organism-based; parameters: dose 1 mg/kg, route intravenous; details: in vivo
Rattus norvegicus [12] = test: Toxicity in Sprague-Dawley rat assessed as side effects at 2 mg/kg, iv; type: organism-based; parameters: dose 2 mg/kg, route intravenous; details: in vivo
[13] = Cmax in Sprague-Dawley rat at 1 mg/kg, iv; type: ADME, organism-based; parameters: dose 1 mg/kg, route intravenous; details: in vivo
[14] = AUC (0 to t) in Sprague-Dawley rat at 1 mg/kg, iv; type: ADME, organism-based; parameters: dose 1 mg/kg, route intravenous; details: plasma
[15] = Mean residence time in Sprague-Dawley rat at 1 mg/kg, ig; type: ADME, organism-based; parameters: dose 1 mg/kg, route intragastric; details: in vivo, po
[16] = Tmax in Sprague-Dawley rat at 1 mg/kg, ig; type: ADME, organism-based; parameters: dose 1 mg/kg, route intragastric; details: in vivo, po
[17] = Systemic clearance in Sprague-Dawley rat at 1 mg/kg, ig; type: ADME, organism-based; parameters: dose 1 mg/kg, route intragastric; details: in vivo, po
[18] = Cmax in Sprague-Dawley rat at 1 mg/kg, ig; type: ADME, organism-based; parameters: dose 1 mg/kg, route intragastric; details: in vivo, po
[19] = AUC (0 to t) in Sprague-Dawley rat at 1 mg/kg, ig; type: ADME, organism-based; parameters: dose 1 mg/kg, route intragastric; details: plasma, po
[20] = Terminal half life in Sprague-Dawley rat at 1 mg/kg, ig; type: ADME, organism-based; parameters: dose 1 mg/kg, route intragastric; details: in vivo, po, read-out: beta t1/2 (converted)
Rattus norvegicus [21] = test: Toxicity in Sprague-Dawley rat assessed as mortality at 1 mg/kg, iv after 10 hrs; type: organism-based; parameters: dose 1 mg/kg, route intravenous; details: in vivo
Rattus norvegicus [22] = test: Toxicity in Sprague-Dawley rat assessed as mortality at 1 mg/kg, ig after 10 hrs; type: organism-based; parameters: dose 1 mg/kg, route intragastric; details: in vivo, po
Rattus norvegicus [23] = test: Volume of distribution in Sprague-Dawley rat at 1 mg/kg, ig; type: ADME, organism-based; parameters: dose 1 mg/kg, route intragastric; details: in vivo, po
[24] = Toxicity against zebrafish embryo assessed as embryo death at 10 umol after 24 hrs; parameters: species or system Danio rerio; details: in vivo
[25] = Toxicity against zebrafish embryo assessed as cell death in tail at 1 umol after 24 hrs; parameters: species or system Danio rerio
[26] = Toxicity against zebrafish embryo assessed as cell death in embryo at 1 umol after 24 hrs; parameters: species or system Danio rerio
[27] = Oral bioavailability in Sprague-Dawley rat; type: ADME, organism-based; details: in vivo

Cc1ccc(C[C@H](NC(=O)CC(NC(=O)c2cnccn2)c2ccccc2)B(O)O)cc1 (stereo not given in full)
IC50 [1]: 497 nM

CC(C)C[C@H](NC(=O)CC(NC(=O)c1cnccn1)c1ccccc1)B(O)O (stereo not given in full)
IC50 [1]: 136 nM

Cc1ccc(C(CC(=O)N[C@@H](CC(C)C)B(O)O)NC(=O)c2cnccn2)cc1 (stereo not given in full)
IC50 [1]: 69.8 nM

CC(C)C[C@H](NC(=O)CC(NC(=O)c1ccccc1)c1ccccc1)B(O)O (stereo not given in full)
IC50 [1]: 40 nM

COc1ccc([C@H](CC(=O)N[C@@H](CC(C)C)B(O)O)NC(=O)c2ccccc2)cc1
IC50 [2]: 76.9 µM | IC50 (HL-60): 700 nM | Activity [3]: Non-toxic | IC50 (PC-3): 1110 nM | IC50 (BXPC-3): 2820 nM | IC50 (A549): 3680 nM | IC50 (SK-OV-3): 14.5 µM | IC50 (U-266): 1280 nM | IC50 [1]: 350 nM | Activity [4]: Non-toxic | IC50 (SW480): 1720 nM | IC50 (NCI-H460): 25.2 µM | IC50 (HepG2): 5.13 µM

CC(C)C[C@H](NC(=O)CC(NC(=O)c1cccnc1)c1ccc(Cl)cc1)B(O)O (stereo not given in full)
IC50 [1]: 180 nM

COc1ccc(C(CC(=O)N[C@@H](CC(C)C)B(O)O)NC(=O)c2cccc3c2CCCC3)cc1 (stereo not given in full)
IC50 [1]: 161 nM

COc1ccc(C(CC(=O)N[C@@H](CC(C)C)B(O)O)NC(=O)c2cnccn2)cc1 (stereo not given in full)
IC50 [1]: 134 nM

CC(C)C[C@H](NC(=O)CC(NC(=O)c1cnccn1)c1ccc(Cl)cc1)B(O)O (stereo not given in full)
IC50 [1]: 121 nM

O=C(CC(NC(=O)c1cnccn1)c1ccccc1)N[C@@H](Cc1ccccc1)B(O)O (stereo not given in full)
IC50 [1]: 664 nM

Cc1ccc(C(CC(=O)N[C@@H](CC(C)C)B(O)O)NC(=O)c2cccnc2)cc1 (stereo not given in full)
IC50 [1]: 165 nM

Cc1ccc(C(CC(=O)N[C@@H](CC(C)C)B(O)O)NC(=O)c2ccccc2)cc1 (stereo not given in full)
IC50 [1]: 14 nM

COc1ccc(C(CC(=O)N[C@@H](CC(C)C)B(O)O)NC(=O)c2ccccc2)cc1 (stereo not given in full)
IC50 [2]: 30.9 µM | IC50 (HL-60): 1020 nM | IC50 (PC-3): 830 nM | IC50 (BXPC-3): 1500 nM | IC50 (A549): 3450 nM | IC50 (SK-OV-3): 8.43 µM | IC50 (U-266): 2650 nM | IC50 [1]: 12.5 nM | IC50 (SW480): 1080 nM | IC50 (NCI-H460): 36 µM | IC50 (HepG2): 5.59 µM

CC(C)C[C@H](NC(=O)CC(NC(=O)c1cccnc1)c1ccccc1)B(O)O (stereo not given in full)
IC50 [1]: 382 nM

CC(C)C[C@H](NC(=O)CC(NC(=O)c1ccccc1)c1ccc(Cl)cc1)B(O)O (stereo not given in full)
IC50 [1]: 30 nM

COc1ccc([C@@H](CC(=O)N[C@@H](CC(C)C)B(O)O)NC(=O)c2ccccc2)cc1
Tmax [5]: 1.8 min | IC50 [2]: 74.4 µM | Activity (Rattus norvegicus [6]): Non-toxic | IC50 (HL-60): 140 nM | clearance [7]: 18.8 mL/min/kg | half-life [8]: 318 min | IC50 (PC-3): 230 nM | IC50 (BXPC-3): 380 nM | IC50 (A549): 830 nM | Activity (Rattus norvegicus [9]): Non-toxic | IC50 (SK-OV-3): 3.49 µM | Vd [10]: 8.45 L/kg | MRT [11]: 2.8 h | IC50 (U-266): 350 nM | IC50 [1]: 9.6 nM | Activity (Rattus norvegicus [12]): Non-toxic | IC50 (SW480): 410 nM | IC50 (NCI-H460): 14.6 µM | Cmax [13]: 2930 ng/mL | AUC(0-t) [14]: 933 ng·h/mL | IC50 (HepG2): 1.88 µM

COc1ccc(C(CC(=O)N[C@@H](CC(C)C)B(O)O)NC(=O)c2cccnc2)cc1 (stereo not given in full)
IC50 [1]: 35 nM

CC(C)C[C@H](NC(=O)[C@H](Cc1ccccc1)NC(=O)c1cnccn1)B(O)O [BORTEZOMIB]
Tmax [5]: 1.8 min | IC50 [2]: 3.29 µM | MRT [15]: 7.69 h | Tmax [16]: 13.8 min | IC50 (HL-60): 7.1 nM | CL/F [17]: 44.7 mL/min/kg | clearance [7]: 23.9 mL/min/kg | half-life [8]: 120 min | Cmax [18]: 161 ng/mL | IC50 (PC-3): 7 nM | IC50 (BXPC-3): 16.2 nM | IC50 (A549): 6.7 nM | IC50 (SK-OV-3): 0.151 µM | Vd [10]: 3.74 L/kg | AUC(0-t) [19]: 303 ng·h/mL | MRT [11]: 1.4 h | half-life [20]: 448 min | Activity (Rattus norvegicus [21]): Toxic | IC50 (U-266): 8.8 nM | Activity (Rattus norvegicus [22]): Toxic | IC50 [1]: 2.48 nM | Vz (Rattus norvegicus [23]): 29791 mL/kg | Activity [24]: Toxic | Activity [25]: 28.5% | IC50 (SW480): 6.1 nM | IC50 (NCI-H460): 0.78 µM | Cmax [13]: 1080 ng/mL | Activity [26]: 52.4% | AUC(0-t) [14]: 654 ng·h/mL | bioavailability [27]: 46% | IC50 (HepG2): 0.0075 µM
